For this assay, the system named is P388 leukemia ip, CD2F1 mice, survival T/C. Kind of assay: NCI In Vivo Anticancer Drug Screen. Data for tumor model P388 Leukemia (intraperitoneal) in CD2F1 (CDF1) mice. To be noted: endpoint: median survival time, higher = longer survival. An outline of the steps: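 Mice carrying the transplanted tumor received test compound or vehicle. Survival was recorded in each group, and the value is the treated-group measurement divided by that of the vehicle-treated control group.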

The mark [1] stands for this setting: dose: 50.0 mg/kg/injection, schedule: Q01DX009 (ip), vehicle: saline.
The mark [2] stands for this setting: dose: 100.0 mg/kg/injection, schedule: Q01DX009 (ip), vehicle: saline.
Where [3] appears, read: dose: 60.0 mg/kg/injection, schedule: Q01DX005 (ip), vehicle: Klucel (hydroxypropylcellulose) (HPC).
Where [4] appears, read: dose: 120.0 mg/kg/injection, schedule: Q01DX005 (ip), vehicle: Klucel (hydroxypropylcellulose) (HPC).
Setting [5] is: dose: 240.0 mg/kg/injection, schedule: Q01DX005 (ip), vehicle: Klucel (hydroxypropylcellulose) (HPC).
The mark [6] stands for this setting: dose: 100.0 mg/kg/injection, schedule: Q01DX005 (ip), vehicle: Klucel (hydroxypropylcellulose) (HPC).
The mark [7] stands for this setting: dose: 200.0 mg/kg/injection, schedule: Q01DX005 (ip), vehicle: Klucel (hydroxypropylcellulose) (HPC).

Where “and” joins values, the source holds several entries; their conditions need not be identical. Equal values may be shown once. Inconclusive results and toxic doses are left out.

Take `COc1ccc2c(c1O)-c1cccc3c1[C@@H](C2)N(CCCl)CC3`: the T/C was 101 % of control and 105 % of control (dose: 1.0 mg/kg/injection, schedule: Q01DX009 (ip), vehicle: Klucel (hydroxypropylcellulose) (HPC)); 99 % of control and 101 % of control (dose: 2.0 mg/kg/injection, schedule: Q01DX009 (ip), vehicle: Klucel (hydroxypropylcellulose) (HPC)); 106 % of control and 113 % of control (dose: 4.0 mg/kg/injection, schedule: Q01DX009 (ip), vehicle: Klucel (hydroxypropylcellulose) (HPC)); 151 % of control (dose: 4.0 mg/kg/injection, schedule: Q01DX009 (ip), vehicle: saline); 104 % of control and 118 % of control (dose: 6.25 mg/kg/injection, schedule: Q04DX003 (ip), vehicle: other); 106 % of control (dose: 8.0 mg/kg/injection, schedule: Q01DX009 (ip), vehicle: Klucel (hydroxypropylcellulose) (HPC)). In addition, the T/C is, setting by setting: (dose: 8.0 mg/kg/injection, schedule: Q01DX009 (ip), vehicle: saline) 114 % of control and 120 % of control; (dose: 12.5 mg/kg/injection, schedule: Q04DX003 (ip), vehicle: other) 90 % of control; (dose: 25.0 mg/kg/injection, schedule: Q04DX003 (ip), vehicle: other) 116 % of control.

`Cc1ccc(Cl)cc1S(=O)(=O)Cl`: the T/C is, setting by setting: (dose: 12.5 mg/kg/injection, schedule: Q01DX009 (ip), vehicle: distilled water + Tween-80) 100 % of control; (dose: 25.0 mg/kg/injection, schedule: Q01DX009 (ip), vehicle: distilled water + Tween-80) 110 % of control.

On to `C=CCNC(=S)NNC(=O)CNC(c1ccc(OC)cc1)C(CC)c1ccc(OC)cc1` (stereo unspecified), for which the T/C by setting is: (dose: 100.0 mg/kg/injection, schedule: Q01DX001 (ip), vehicle: saline with Tween-80) 99 % of control; (dose: 200.0 mg/kg/injection, schedule: Q01DX001 (ip), vehicle: saline with Tween-80) 110 % of control.

In the case of `Clc1ccc(/C=N\N=C\c2ccc(Cl)c(Cl)c2)cc1Cl`, the T/C is 95 % of control (dose: 25.0 mg/kg/injection, schedule: Q01DX009 (ip), vehicle: saline with Tween-80); 100 % of control (dose: 50.0 mg/kg/injection, schedule: Q01DX009 (ip), vehicle: saline with Tween-80); 110 % of control (dose: 100.0 mg/kg/injection, schedule: Q01DX009 (ip), vehicle: saline with Tween-80); 90 % of control (dose: 200.0 mg/kg/injection, schedule: Q01DX009 (ip), vehicle: saline with Tween-80); 90 % of control (dose: 400.0 mg/kg/injection, schedule: Q01DX009 (ip), vehicle: saline with Tween-80).

Turning to `COC1=CCC(CCNC(=O)c2cc3c(cc2[N+](=O)[O-])OCO3)=CC1`, the T/C by setting is: (dose: 60.0 mg/kg/injection, schedule: Q01DX005 (ip), vehicle: saline with Tween-80) 101 % of control; (dose: 120.0 mg/kg/injection, schedule: Q01DX005 (ip), vehicle: saline with Tween-80) 93 % of control; (dose: 240.0 mg/kg/injection, schedule: Q01DX005 (ip), vehicle: saline with Tween-80) 98 % of control.

As to `Cn1c2nc(-[n+]3cccc(CO)c3)nc-2c([O-])n(C)c1=O`, the T/C (dose: 100.0 mg/kg/injection, schedule: Q04DX003 (ip), vehicle: saline) is 103 % of control; the T/C (dose: 200.0 mg/kg/injection, schedule: Q04DX003 (ip), vehicle: saline) is 99 % of control; the T/C (dose: 400.0 mg/kg/injection, schedule: Q04DX003 (ip), vehicle: saline) is 103 % of control.

For `O=c1[nH]c(=O)c2ncn(C3OC(CO)C(O)C3O)c2[nH]1.O=c1[nH]c(=O)c2ncn(C3OC(CO)C(O)C3O)c2[nH]1.[NH2-].[NH2-].[Pt+2]` (stereo unspecified), the T/C reads like this: (dose: 6.25 mg/kg/injection, schedule: Q01DX009 (ip), vehicle: saline) 105 % of control; (dose: 12.5 mg/kg/injection, schedule: Q01DX009 (ip), vehicle: saline) 110 % of control and 102 % of control; (dose: 25.0 mg/kg/injection, schedule: Q01DX009 (ip), vehicle: saline) 92 % of control and 107 % of control; under setting [1], 100 % of control and 107 % of control; (dose: 50.0 mg/kg/injection, schedule: Q04DX003 (ip), vehicle: suspension in saline) 105 % of control; under setting [2], 96 % of control and 116 % of control. Besides, the T/C was 110 % of control (dose: 100.0 mg/kg/injection, schedule: Q04DX003 (ip), vehicle: suspension in saline); 120 % of control (dose: 200.0 mg/kg/injection, schedule: Q04DX003 (ip), vehicle: suspension in saline); 174 % of control (dose: 400.0 mg/kg/injection, schedule: Q04DX003 (ip), vehicle: water).

As to `[Cl][Pt+2][Cl].[NH-]CC1(C[NH-])CCC1`, the T/C reads like this: (dose: 0.38 mg/kg/injection, schedule: Q01DX009 (ip), vehicle: saline) 114 % of control; (dose: 0.38 mg/kg/injection, schedule: Q01DX009 (ip), vehicle: suspension in saline) 161 % of control; (dose: 0.75 mg/kg/injection, schedule: Q01DX009 (ip), vehicle: suspension in saline) 215 % of control; (dose: 1.5 mg/kg/injection, schedule: Q01DX005 (ip), vehicle: saline) 175 % of control; (dose: 1.5 mg/kg/injection, schedule: Q01DX005 (ip), vehicle: suspension in saline) 161 % of control; (dose: 1.5 mg/kg/injection, schedule: Q01DX009 (ip), vehicle: saline) 165 % of control. For the same molecule, the T/C (dose: 1.5 mg/kg/injection, schedule: Q01DX009 (ip), vehicle: suspension in saline) is 247 % of control; the T/C (dose: 3.0 mg/kg/injection, schedule: Q01DX005 (ip), vehicle: saline) was 202 % of control; the T/C (dose: 3.0 mg/kg/injection, schedule: Q01DX005 (ip), vehicle: suspension in saline) is 191 % of control; the T/C (dose: 3.0 mg/kg/injection, schedule: Q01DX009 (ip), vehicle: saline) is 243 % of control; the T/C (dose: 3.0 mg/kg/injection, schedule: Q01DX009 (ip), vehicle: suspension in saline) is 159 % of control; the T/C (dose: 6.0 mg/kg/injection, schedule: Q01DX005 (ip), vehicle: saline) is 112 % of control. Also, the T/C by setting is: (dose: 6.0 mg/kg/injection, schedule: Q01DX005 (ip), vehicle: suspension in saline) 198 % of control; (dose: 6.0 mg/kg/injection, schedule: Q01DX009 (ip), vehicle: saline) 215 % of control; (dose: 6.0 mg/kg/injection, schedule: Q01DX009 (ip), vehicle: suspension in saline) 119 % of control.

For the molecule `O=c1oc(NC2CCCCC2)nc2ccccc12`, the T/C runs as follows: under setting [3], 93 % of control; under setting [4], 92 % of control; under setting [5], 92 % of control.

In the case of `Clc1ccc(-c2c(-c3ccccc3)c3n(c2Sc2ccccc2)CCC3)cc1`, the T/C was 92 % of control under setting [3], 89 % of control under setting [4] and 86 % of control under setting [5].

On to `CN(CS(=O)(=O)c1ccccc1)CS(=O)(=O)c1ccccc1`, for which the T/C runs as follows: under setting [3], 110 % of control; under setting [4], 105 % of control; under setting [5], 108 % of control.

Take `CCC(C)n1c(=O)cc(C)[nH]c1=O` (stereo unspecified): the T/C reads like this: under setting [1], 101 % of control; under setting [2], 98 % of control; (dose: 200.0 mg/kg/injection, schedule: Q01DX009 (ip), vehicle: saline) 104 % of control.

For the molecule `CC(C)C(NC(=O)CCNC(=O)OCc1ccccc1)C(=O)O` (stereo unspecified), the T/C under setting [6] is 102 % of control; the T/C under setting [7] is 100 % of control; the T/C (dose: 400.0 mg/kg/injection, schedule: Q01DX005 (ip), vehicle: Klucel (hydroxypropylcellulose) (HPC)) is 96 % of control.

For the molecule `CC(=O)C(/C=N\N=C(/C)c1cn[nH]c1C)=C(/C)O`, the T/C is 96 % of control under setting [3], 92 % of control under setting [4] and 89 % of control under setting [5].

For `CCC1(C(=O)OC)CCc2c(cc(OC)c3ccccc23)C1=O` (stereo unspecified), the T/C was 87 % of control (dose: 50.0 mg/kg/injection, schedule: Q01DX005 (ip), vehicle: Klucel (hydroxypropylcellulose) (HPC)); 87 % of control under setting [6]; 89 % of control under setting [7].

Consider `CN=c1s[se]c2ccccc12`, for which the T/C was 102 % of control (dose: 12.5 mg/kg/injection, schedule: Q01DX009 (ip), vehicle: Klucel (hydroxypropylcellulose) (HPC)) and 94 % of control (dose: 25.0 mg/kg/injection, schedule: Q01DX009 (ip), vehicle: Klucel (hydroxypropylcellulose) (HPC)).

Values taken from PubChem BioAssay AID330 (DTP/NCI, 2004).
